From article PMC10855164, “Ligand-Based Design of Selective Peptidomimetic uPA and TMPRSS2 Inhibitors with Arg Bioisosteres” (International Journal of Molecular Sciences, 2024)
Several values for one entry are separate records, joined by “and”; a condition that tells them apart may be missing. Equal entries are not always repeated.

Columns and labels:
Assay type in all cases: biochemical
matriptase = target: T1, matriptase (Homo sapiens, UniProt Q9Y5Y6); test: fluorometric enzyme inhibition assay, matriptase (Boc-Leu-Arg-Arg-AMC)
T1 construct: catalytic domain of matriptase (uniport: Q9Y5Y6 aa 596–855); hexa-histidine (N); made in house; host or cells: Escherichia coli BL21 Gold (DE3)
T1 sequence (Q9Y5Y6 596-855): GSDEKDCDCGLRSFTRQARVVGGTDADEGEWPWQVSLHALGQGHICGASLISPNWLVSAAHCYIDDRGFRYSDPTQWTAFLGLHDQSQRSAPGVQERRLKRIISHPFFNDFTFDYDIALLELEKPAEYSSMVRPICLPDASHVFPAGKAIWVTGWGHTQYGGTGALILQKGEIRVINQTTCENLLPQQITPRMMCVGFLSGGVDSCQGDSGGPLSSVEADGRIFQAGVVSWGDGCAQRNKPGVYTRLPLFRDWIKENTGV
Protocol: (§1) The inhibitory activity of the synthesized compounds towards the respective main- and off-target proteases was measured via fluorometric and colorimetric assays. Thus, fluorogenic AMC- or colorimetric pNA-based substrates with a peptide sequence suitable for the tested protease were utilized (see Supplementary Figure S2). At first, the compounds were screened against […] proteases (uPA, TMPRSS2, matriptase, tPA, thrombin, factor Xa) at 20 µM, and a cut-off value of 80% inhibition at this concentration was set, for the differentiation between nonactive (n.a.) and active inhibitors. Due to the reversible inhibition mechanism of the ketobenzothiazole derivates, the IC50 values were determined with Graphpad Prism 9, and afterwards converted to the corresponding Ki values for an adequate comparison between the inhibitory activities of the compounds toward all tested proteases. The Ki values were calculated using the Cheng–Prusoff equation [43].
(§2) Fluorometric inhibition assays
(§3) The inhibitory activities of the compounds against the proteases were determined by enzyme inhibition assays with fluorogenic or colorimetry-based substrates. The fluorescence, caused by cleaved AMC from the fluorogenic substrates (uPA, matriptase, TMPRSS2, thrombin), was measured in white flat-bottom 96-well plates from Greiner Bio-One using a Tecan Infinite F200 Pro plate reader. The absorption, caused by cleaved pNA from colorimetric substrates (factor Xa and tPA), was measured in transparent flat-bottom 96-well plates from Greiner Bio-One using a Tecan Spark 10M plate reader. All measurements with the main-target proteases (uPA and TMRPSS2) were performed as triplicates and with the off-target proteases (matriptase, factor Xa, tPA, thrombin) as duplicates. The substrates and the compounds were prepared as stock solutions in DMSO. Each well contained a total volume of 200 µL, consisting of 185 µL buffer, 5 µL inhibitor in DMSO or pure DMSO as negative control, 5 µL substrate in DMSO and 5 µL enzyme solution in buffer. Dilution series were prepared for the determination of the inhibition constants. The fluorescence signal and absorbance were measured every 30 s for 10 min at 25 or 37 °C with the corresponding excitation/emission (λex = 380 nm / λem = 460 nm) and absorbance (λabs = 405 nm) wavelengths, depending on the targeted protease. IC50 values for the reversible inhibitors were calculated with Graphpad Prism 9 by fitting the remaining enzymatic activity to the four parameter IC50 equation with Y [%] as the residual enzyme activity , Ymax as the maximum value of the dose response curve at inhibitor concentrations [I] = 0 µM, Ymin as the minimum value at high inhibitor concentrations and s as the hill coefficient.[1] The fluorescence progress curves and sigmoidal dose-response curve for inhibition of uPa by compound 38 is shown exemplary in Figure S2. […]
(§4) Due to the dependence of the IC50 value on the substrate affinity and concentration, the Ki values were calculated with the Cheng-Prusoff equation, using the final substrate concentration [S] and the Michaelis-Menten constant KM, (2) for appropriate comparison of the inhibitory activities to the other enzymes and inhibitors.[1]
(§5) KM values were determined by fitting to the Michaelis-Menten equation using Graphpad Prism 9 with v [ΔF/min] as the substrate hydrolysis rate, vmax as the maximum slope of the dose-response curve, and the substrate [S] concentration.[1] The different substrates were serially diluted in DMSO. The measurement was done in analogy to the determination of the inhibitory activity, but with 5 µL pure DMSO instead of inhibitor solution. […]
(§6) The following buffers and substrates were used for the respective assays: uPA (50 mM Tris HCl pH = 7.9, 150 mM […]
(§7) TMPRSS2 (25 mM Tris HCl pH = 8.0, 150 mM NaCl, 5 mM CaCl2, 0.001% TX-100, 100 µM Boc-Gln-Ala-Arg-AMC (KM: 68.63 ± 6.64 µM), 25 °C, 3 nM TMPRSS2)[3]; matriptase (50 mM Tris HCl pH = 8.0, 150 mM NaCl, 5 mM CaCl2, […]

uPA = target: T2, uPA (Homo sapiens, UniProt P00749); test: fluorometric enzyme inhibition assay, uPA (Z-Gly-Gly-Arg-AMC); conditions: for Selectivity index [SI] uPA: quotient Ki uPA / Ki TMPRSS2
T2 construct: purchased Sigma Aldrich
Protocol: as §1, §2
The inhibitory activities of the compounds against the proteases were determined by enzyme inhibition assays with fluorogenic or colorimetry-based substrates. The fluorescence, caused by cleaved AMC from the fluorogenic substrates (uPA, matriptase, TMPRSS2, thrombin), was measured in white flat-bottom 96-well plates from Greiner Bio-One using a Tecan Infinite F200 Pro plate reader. The absorption, caused by cleaved pNA from colorimetric substrates (factor Xa and tPA), was measured in transparent flat-bottom 96-well plates from Greiner Bio-One using a Tecan Spark 10M plate reader. All measurements with the main-target proteases (uPA and TMRPSS2) were performed as triplicates and with the off-target proteases (matriptase, factor Xa, tPA, thrombin) as duplicates. The substrates and the compounds were prepared as stock solutions in DMSO. Each well contained a total volume of 200 µL, consisting of 185 µL buffer, 5 µL inhibitor in DMSO or pure DMSO as negative control, 5 µL substrate in DMSO and 5 µL enzyme solution in buffer. Dilution series were prepared for the determination of the inhibition constants. The fluorescence signal and absorbance were measured every 30 s for 10 min at 25 or 37 °C with the corresponding excitation/emission (λex = 380 nm / λem = 460 nm) and absorbance (λabs = 405 nm) wavelengths, depending on the targeted protease. IC50 values for the reversible inhibitors were calculated with Graphpad Prism 9 by fitting the remaining enzymatic activity to the four parameter IC50 equation with Y [%] as the residual enzyme activity , Ymax as the maximum value of the dose response curve at inhibitor concentrations [I] = 0 µM, Ymin as the minimum value at high inhibitor concentrations and s as the hill coefficient.[1] The fluorescence progress curves and sigmoidal dose-response curve for inhibition of uPa by compound 38 is shown exemplary in Figure S2.
Figure S2: (left) Fluorescence progress curves for inhibition of uPa by cpd. 38. (right) Plot showing the respective IC50 value […]
as §4
KM values were determined by fitting to the Michaelis-Menten equation using Graphpad Prism 9 with v [ΔF/min] as the substrate hydrolysis rate, vmax as the maximum slope of the dose-response curve, and the substrate [S] concentration.[1] The different substrates were serially diluted in DMSO. The measurement was done in analogy to the determination of the inhibitory activity, but with 5 µL pure DMSO instead of inhibitor solution. The fluorescence progress curves and Michaelis-Menten curve of the specific substrate of uPA is shown exemplarily […]
Figure S3: (left) Fluorescence progress curves of cleavage of Z-Gly-Gly-Arg-AMC by uPA. (right) Michaelis-Menten curve […]

TMPRSS2 = target: T3, TMPRSS2 (Homo sapiens, UniProt O15393); test: fluorometric enzyme inhibition assay, TMPRSS2 (Boc-Gln-Ala-Arg-AMC); conditions: for Selectivity index [SI] TMPRSS2: quotient Ki TMPRSS2 / Ki uPA
T3 construct: purchased Cusabio
Protocol: as §1, §2, §3, §4, §5, §6, §7

thrombin = target: T4, thrombin (Homo sapiens, UniProt P00734); test: fluorometric enzyme inhibition assay, thrombin (Z-Gly-Gly-Arg-AMC); conditions: for Ki / Ki Thrombin: from IC50 by Cheng-Prusoff, n.a. = not active, <80% inhibition at 20 µM; for Selectivity index [SI] Thrombin: quotient Ki thrombin / Ki uPA
T4 construct: purchased Bio-techne
Protocol: as §1, §2, §3, §4, §5, §6, §7

tPA = target: T5, tPA (Homo sapiens, UniProt P00750); test: colorimetric enzyme inhibition assay, tPA (N-methylsulfonyl-D-Phe-Gly-Arg-pNA); conditions: from IC50 by Cheng-Prusoff; n.a. = not active, <80% inhibition at 20 µM
T5 construct: purchased Sigma Aldrich
Protocol: as §1, §2, §3, §4
KM values were determined by fitting to the Michaelis-Menten equation using Graphpad Prism 9 with v [ΔF/min] as the substrate hydrolysis rate, vmax as the maximum slope of the dose-response curve, and the substrate [S] concentration.[1] The different substrates were serially diluted in DMSO. […]

factor Xa = target: T6, factor Xa (Homo sapiens, UniProt P00742); test: colorimetric enzyme inhibition assay, factor Xa (Z-D-Arg-Gly-Arg-pNA); conditions: for Ki / Ki Factor Xa: from IC50 by Cheng-Prusoff, n.a. = not active, <80% inhibition at 20 µM; for Selectivity index [SI] Factor Xa: quotient Ki factor Xa / Ki uPA
T6 construct: purchased Bio-techne
Protocol: as §1, §2, §3, §4, §5, §6, §7

[1] = from IC50 by Cheng-Prusoff, n.a. = not active, <80% inhibition at 20 µM
[2] = quotient Ki matriptase / Ki uPA
[3] = quotient Ki matriptase / Ki TMPRSS2

T5 sequence (P00750 36-562): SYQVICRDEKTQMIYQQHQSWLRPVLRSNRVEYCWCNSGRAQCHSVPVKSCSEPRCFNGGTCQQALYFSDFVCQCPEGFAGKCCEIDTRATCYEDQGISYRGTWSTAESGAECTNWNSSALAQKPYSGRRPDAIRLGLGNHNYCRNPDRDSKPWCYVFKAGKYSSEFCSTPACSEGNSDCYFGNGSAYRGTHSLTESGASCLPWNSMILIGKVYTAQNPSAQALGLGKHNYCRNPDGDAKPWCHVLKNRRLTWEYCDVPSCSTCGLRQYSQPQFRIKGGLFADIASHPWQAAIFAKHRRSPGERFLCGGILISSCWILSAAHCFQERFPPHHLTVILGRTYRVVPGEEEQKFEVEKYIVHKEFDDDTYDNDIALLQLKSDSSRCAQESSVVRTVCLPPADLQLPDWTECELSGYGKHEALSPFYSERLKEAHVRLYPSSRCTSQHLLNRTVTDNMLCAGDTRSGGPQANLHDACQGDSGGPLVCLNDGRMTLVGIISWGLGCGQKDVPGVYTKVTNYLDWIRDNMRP
T3 sequence (O15393 whole entry): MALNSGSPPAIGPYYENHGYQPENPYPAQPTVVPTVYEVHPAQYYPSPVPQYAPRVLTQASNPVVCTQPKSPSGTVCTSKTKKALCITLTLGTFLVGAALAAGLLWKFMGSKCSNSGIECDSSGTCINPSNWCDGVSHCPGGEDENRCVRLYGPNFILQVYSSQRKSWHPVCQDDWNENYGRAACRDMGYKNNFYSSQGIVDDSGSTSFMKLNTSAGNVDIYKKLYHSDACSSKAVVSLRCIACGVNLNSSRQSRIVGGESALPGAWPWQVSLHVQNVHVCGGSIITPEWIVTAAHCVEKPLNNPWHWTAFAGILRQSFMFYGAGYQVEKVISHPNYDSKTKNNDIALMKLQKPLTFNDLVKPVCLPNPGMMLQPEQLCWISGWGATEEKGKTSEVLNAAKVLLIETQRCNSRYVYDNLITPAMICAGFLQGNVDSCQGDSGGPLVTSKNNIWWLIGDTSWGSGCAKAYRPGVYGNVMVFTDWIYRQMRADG
T6 sequence (P00742 235-488 limits assumed): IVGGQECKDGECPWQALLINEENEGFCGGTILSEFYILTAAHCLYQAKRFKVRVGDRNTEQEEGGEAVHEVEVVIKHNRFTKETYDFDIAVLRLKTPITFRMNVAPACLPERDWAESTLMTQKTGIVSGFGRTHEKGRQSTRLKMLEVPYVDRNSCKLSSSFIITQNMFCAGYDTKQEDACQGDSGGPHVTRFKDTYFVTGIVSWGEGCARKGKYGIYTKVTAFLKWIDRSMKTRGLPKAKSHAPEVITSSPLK
T6 sequence (P00742 41-179 partner limits assumed): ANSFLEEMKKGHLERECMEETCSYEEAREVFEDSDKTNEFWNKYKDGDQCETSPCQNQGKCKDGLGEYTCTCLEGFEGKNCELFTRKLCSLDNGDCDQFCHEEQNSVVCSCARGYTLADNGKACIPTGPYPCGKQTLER

SMILES	Ki (matriptase; [1])	Selectivity index [SI] Matriptase (matriptase; [2])	Ki (uPA; [1]) [µM]	Ki (TMPRSS2; [1]) [µM]	Selectivity index [SI] TMPRSS2 (TMPRSS2)	Selectivity index [SI] Matriptase (matriptase; [3])	Selectivity index [SI] uPA (uPA)	further results
CC(=O)NCC(=O)NC(C(=O)NC(C)C(=O)NC(CCCNC(=N)N)C(=O)c1nc2ccccc2s1)C(C)O [Compound 14a, Ac-Gly-L-Thr-L-Ala-L-Arg-kbt]	0.032 ± 0.014 µM	0.2	0.141 ± 0.028	0.005 ± 0.001	0.04	–	–	Ki (thrombin): 4.39 ± 1.48 µM; Selectivity index [SI] Thrombin (thrombin): 31; Ki tPA (tPA): did not show inhibition; Ki (factor Xa): 3.36 ± 0.32 µM
CC(=O)NCC(=O)NC(C(=O)NC(C)C(=O)NC(CCCNC(=N)N)C(=O)c1nc2ccc(F)cc2s1)C(C)O (stereo not shown) [Compound 14b]	–	–	0.388 ± 0.095	–	–	–	–	–
CC(=O)NCC(=O)NC(C(=O)NC(C)C(=O)NC(CCCNC(=N)N)C(=O)c1nc2ccc(Cl)cc2s1)C(C)O (stereo not shown) [Compound 14c]	0.059 ± 0.009 µM	0.7	0.082 ± 0.006	0.009 ± 0.001	0.1	–	–	Ki (thrombin): 0.456 ± 0.072 µM; Selectivity index [SI] Thrombin (thrombin): 5; Ki (factor Xa): 2.45 ± 0.099 µM; Selectivity index [SI] Factor Xa (factor Xa): 30
CC(=O)NCC(=O)NC(C(=O)NC(C)C(=O)NC(CCCNC(=N)N)C(=O)c1nc2ccc(Br)cc2s1)C(C)O (stereo not shown) [Compound 14d]	0.038 ± 0.002 µM	0.6	0.06 ± 0.015	0.006 ± 0.001	0.1	–	–	Ki (thrombin): 0.45 ± 0.069 µM; Selectivity index [SI] Thrombin (thrombin): 8; Ki (factor Xa): 2.85 ± 0.844 µM; Selectivity index [SI] Factor Xa (factor Xa): 47
COc1ccc2nc(C(=O)C(CCCNC(=N)N)NC(=O)C(C)NC(=O)C(NC(=O)CNC(C)=O)C(C)O)sc2c1 (stereo not shown) [Compound 14e]	–	–	0.178 ± 0.019	–	–	–	–	–
CC(=O)NCC(=O)NC(C(=O)NC(C)C(=O)NC(CCCNC(=N)N)C(=O)c1nc2c(s1)CCCC2)C(C)O (stereo not shown) [Compound 15]	–	–	0.435 ± 0.033	–	–	–	–	–
CC(=O)NCC(=O)NC(C(=O)NC(C)C(=O)NC(CCCCNC(=N)N)C(=O)c1nc2ccccc2s1)C(C)O (stereo not shown) [Compound 20]	–	–	–	–	–	–	–	Ki Matriptase (matriptase; [1]): did not show inhibition; Ki uPA (uPA; [1]): did not show inhibition; Ki TMPRSS2 (TMPRSS2; [1]): did not show inhibition; Ki Thrombin (thrombin): did not show inhibition; Ki tPA (tPA): did not show inhibition; Ki Factor Xa (factor Xa): did not show inhibition
CC(=O)NCC(=O)NC(C(=O)NC(C)C(=O)NC(Cc1ccc(NC(=N)N)cc1)C(=O)c1nc2ccccc2s1)C(C)O (stereo not shown) [Compound 29]	0.132 µM and 0.133 µM	4	0.029 ± 0.002	0.01 ± 0.004	0.3	–	–	Ki Thrombin (thrombin): did not inhibit; Ki tPA (tPA): did not inhibit; Ki Factor Xa (factor Xa): did not inhibit
CC(=O)N[C@@H](CC(N)=O)C(=O)N1CCC[C@H]1C(=O)N[C@@H](Cc1ccc(NC(=N)N)cc1)C(=O)c1nc2ccccc2s1 [Compound 30]	0.06 ± 0.008 µM	–	0.479 ± 0.017	0.005 ± 0.001	–	12	96	–
CC(=O)N[C@@H](CC(N)=O)C(=O)N[C@@H](Cc1ccccc1)C(=O)N[C@@H](Cc1ccc(NC(=N)N)cc1)C(=O)c1nc2ccccc2s1 [Compound 31]	0.252 ± 0.067 µM	–	3.57 ± 0.421	0.0004 ± 0.0001	–	630	> 5000	–
CC(=O)N[C@@H](CC(N)=O)C(=O)N[C@@H](CC1CCCCC1)C(=O)N[C@@H](Cc1ccc(NC(=N)N)cc1)C(=O)c1nc2ccccc2s1 [Compound 32]	3.33 ± 1.14 µM	–	2.69 ± 0.217	0.034 ± 0.004	–	98	79	–
CC(=O)N[C@@H](CC(N)=O)C(=O)N1CCC[C@H]1C(=O)N[C@@H](CC1CCC(NC(=N)N)CC1)C(=O)c1nc2ccccc2s1 (stereo partly shown) [Compound 39]	1.2 ± 0.181 µM	–	0.936 ± 0.1	0.044 ± 0.007	–	27	21	–
